Reference: US20150018296A1, “THERAPEUTIC METHODS AND COMPOSITIONS UTILIZING CYCLOHEXENONE COMPOUNDS” (Golden Biotechnology Corporation, priority 2013, published 2015)

Columns and labels:
K562 = assay: CCK-8 cell viability assay; format: cell-based; details: Homo sapiens, 48 h treatment, mean ± S.E.M., wild-type Ras
Protocol: (§1) Human hepatoma (HepG2, Hep3B), human lung adenocarcinoma (A549, H838), and human myelogenous leukemia (K562) cell lines were obtained from American Type Culture Collection (Rockville, Md., USA). Human prostate cancer cell lines (LNCaP and DU145), human breast carcinoma (MCF-7), human bladder carcinoma (TSGH 8301) and human pancreas adenocarcinoma (BxPC-3) were obtained from BCRC (Bioresource Collection and Research Center, Hsinchu, Taiwan). HepG2, DU145 and MCF-7 cell lines were cultured in Minimum Essential Medium Alpha (Invitrogen/Gibco BRL, Grand Island, N.Y., USA). A549 cells were cultured in Dulbecco's modified Eagle's medium (Invitrogen/Gibco BRL). H838, TSGH 8301, BxPC-3 LNCaP and K562 cell lines were cultured in RPMI-1640 medium (Invitrogen/Gibco BRL). All cells were cultured at 37° C. in 5% CO2 in culture media supplemented with 10% fetal bovine serum (FBS) (Invitrogen/Gibco BRL) and 100 U/ml streptomycin and penicillin (Invitrogen/Gibco BRL). For treatment, cells were seeded in six-well plates at 6.25×10^5 cells/well. On the following day, the media was changed to serum-free media, and cells were serum-starved for 24 h. Compound 1 was dissolved in DMSO and diluted to the required concentration in serum-free medium. Cultures were then treated with diluted Compound 1 as indicated. After treatment, cells were washed with cold phosphate-buffered saline (PBS) and lysed using RIPA buffer containing phosphatase and protease inhibitors.
(§2) Cell Counting Kit-8 (CCK-8) allows sensitive colorimetric assays for the determination of cell viability in cell proliferation and cytotoxicity assays. The detection sensitivity of CCK-8 is higher than the other tetrazolium salts such as MTT, XTT, MTS or WST-1.
(§3) Cell viability was measured using Cell Counting Kit-8 (CCK-8, Enzo Life Sciences, Farmingdale, N.Y.). In this assay, WST-8 is reduced by dehydrogenases in cells to produce a yellow-colored product (formazan), which is soluble in culture medium. The amount of formazan generated is directly proportional to the number of living cells. After treatment, CCK-8 solution was added to each well and incubated for 4 h. The concentration of formazan was measured with a spectrophotometer at an absorbance wavelength of 450 nm. Cell viability was expressed as a percentage of the corresponding control.
(§4) To determine whether the cytotoxic effects of Compound 1 correlate with the presence of Ras mutations, cell lines derived from human lung cancer (A549 and H838), liver cancer (HepG2 and Hep3B), and leukemia (K562 and THP-1) with wild-type Ras (H838, Hep3B, and K562) or mutant Ras (A549, HepG2, and THP-1) were used. Cell viability was measured after 48 h of Compound 1 treatment.

HepG2 = assay: CCK-8 cell viability assay; format: cell-based; details: Homo sapiens, 48 h treatment, mean ± S.E.M., mutant Ras
Protocol: as §1, §2, §3, §4

A549 = assay: CCK-8 cell viability assay; format: cell-based; details: Homo sapiens, 48 h treatment, mean ± S.E.M., mutant Ras
Protocol: as §1, §2, §3, §4

Hep3B = assay: CCK-8 cell viability assay; format: cell-based; details: Homo sapiens, 48 h treatment, mean ± S.E.M., wild-type Ras
Protocol: as §1, §2, §3, §4

THP-1 = assay: CCK-8 cell viability assay; format: cell-based; details: Homo sapiens, 48 h treatment, mean ± S.E.M., mutant Ras
Protocol: as §2, §3, §4

H838 = assay: CCK-8 cell viability assay; format: cell-based, human; details: 48 h treatment, mean ± S.E.M., wild-type Ras
Protocol: as §1, §2, §3, §4

Ras processing = assay: Immunoblot of unprocessed and processed Ras in cancer cell lines; format: cell-based, human; details: H838 cells, competition assay, 24 h
Protocol: FIG. 2A-C show illustrative effective results of the exemplary Compound 1 inhibiting Ras processing in cancer cell lines. (2A) A549 and H838 cells were treated with different concentrations of Compound 1 and grown under serum (10% FBS) or serum-free (no FBS) conditions for 24 h. (2B) H838, (2C) HepG2 and K562 cells were treated with different concentrations of Compound 1 and grown under serum-free (no FBS) conditions for 24 h. Whole cell lysates were then immunoblotted with a Ras antibody. A duplicate membrane was probed with a GAPDH antibody. The relative expression level of unprocessed to processed Ras was quantified by densitometry. The experiments were conducted three times. […]
FIG. 3A-C show illustrative effective results of Compound 1 inhibiting the prenylation activity of farnesyltransferase in vitro and competes with FPP within cells. […] The relative expression level of unprocessed to processed Ras was quantified by densitometry. […]
Sixty micrograms of total protein lysates measured using a Bradford assay (Sigma-Aldrich, St. Louis, Mo., USA) were resolved on 12.5% SDS-polyacrylamide gels. […] Secondary antibodies were conjugated to horseradish peroxidase, which was detected using a 3,3′-diaminobenzidine substrate kit (Vector Laboratories, Burlingame, Calif.). The immunoreactive bands were quantified by densitometry using Image-Pro Plus software (Media Cybernetics, Silver Spring, Md.). […]

Compound	IC50 (HepG2) [µM]	IC50 (A549) [µM]	IC50 (Hep3B) [µM]	IC50 (H838; Homo sapiens, NCI-H838, 48 h) [µM]	further results
COC1=C(OC)C(O)C(C/C=C(\C)CCC(=O)O)C(C)C1=O (centres unmarked) [Compound 27]				> 100	
COC1=C(OC)C(OC(C)=O)C(C/C=C(\C)CC/C=C(\C)CC2CC(C)C(=O)O2)C(C)C1=O (centres unmarked) [Compound 28]				> 100	
COC1=C(OC)C(OC(C)=O)C(C/C=C(\C)CC/C=C(\C)CCC=C(C)C)C(C)C1=O (centres unmarked) [Compound 29]				> 100	
CC(C)=CCC/C(C)=C/CC/C(C)=C/COP(=O)(O)OP(=O)(O)O [FPP, farnesyl pyrophosphate]					concentration of FPP that neutralized the effect of Compound 1 on Ras processing (Ras processing): ≥ 10 µM

Further lines, with some results ahead:

IC50 (HepG2) [µM]	IC50 (A549) [µM]	IC50 (Hep3B) [µM]	IC50 (H838; Homo sapiens, NCI-H838, 48 h) [µM]	Compound	further results
6.42	3.24	3.74	3.32	COC1=C(OC)C(O)C(C/C=C(\C)CC/C=C(\C)CCC=C(C)C)C(C)C1=O (centres unmarked) [Compound 1, 4-hydroxy-2,3-dimethoxy-6-methyl-5-(3,7,11-trimethyldodeca-2,6,10-trienyl)cyclohex-2-enone]	IC50 (K562): 5.12 µM; IC50 (THP-1): 2.22 µM; IC50 (H838): 2.96 ± 0.05 µM
			11.3 ± 4.17	COC1=CC(O)C(C/C=C(\C)CC/C=C(\C)CCC=C(C)C)C(C)C1=O (centres unmarked) [Compound 26, 4-hydroxy-2-methoxy-6-methyl-5-((2E,6E)-3,7,11-trimethyldodeca-2,6,10-trienyl)cyclohex-2-enone]	
27 ± 6.06	22.6 ± 2.24	9.06 ± 3.03	25.6 ± 6.54	COC1=C(OCc2ccccc2)C(=O)C(C)C(C/C=C(\C)CC/C=C(\C)CCC=C(C)C)C1O (centres unmarked) [Compound 30]	
8.98 ± 0.97	6.68 ± 0.75	7.46 ± 7.06	3.41 ± 1.43	COC1=C(OCc2ccccc2)C(O)C(C/C=C(\C)CC/C=C(\C)CCC=C(C)C)C(C)C1=O (centres unmarked) [Compound 31]	
